Results as given in ChEMBL document CHEMBL3988442, “University of Dundee, Small-Polar-MMV Screening Library” (2021).

How the values were obtained:
[1] = microbe, parasite or virus in culture; details: Mycobacterium tuberculosis, 96 h, read-out: pIC50 (converted)
[2] = microbe, parasite or virus in culture; details: Mycobacterium tuberculosis, 72 h, read-out: pIC50 (converted)

Row | SMILES | IC50 [1] | IC50 [2]
1 | O=C1c2ccccc2OCC1CN1CCOCC1 (configuration not stated) | > 501 µM | 266 µM
2 | COCC(=O)NCc1noc(-c2cccc(C)c2)n1 | 160 µM | 265 µM
3 | Cc1nc(-c2c[nH]c(C(=O)N3CCCC3)c2)cs1 | 427 µM | 241 µM
4 | CCNc1cc2c(nn1)CCN(C(=O)C1COc3ccccc3C1)C2 (configuration not stated) | 45 µM | 44.6 µM
5 | CCCS(=O)(=O)N(C)Cc1cccc(OCC)n1 | > 501 µM | 367 µM
6 | Cc1ccc(C(=O)N2CCC3(CCCCO3)CC2)cn1 | > 501 µM | 258 µM
7 | Cn1nc(C(F)(F)F)c(Cl)c1C(=O)N[C@@H]1CCNC1 | > 501 µM | 168 µM
8 | O=C(CNc1ccc(Br)cc1)NCc1ncc[nH]1 | > 501 µM | 228 µM
9 | COC(=O)c1snc(-c2ccccc2)c1N | 97 µM | 103 µM
10 | c1cncc(-c2nc(SCC3CCCCO3)n[nH]2)c1 (configuration not stated) | > 501 µM | 229 µM
11 | NS(=O)(=O)N1CCN(CCCc2cccc(F)c2)CC1 | > 501 µM | > 501 µM
12 | CNC(=O)CN1CCC(OCCCc2ccccc2)C1 (configuration not stated) | > 501 µM | 161 µM
13 | CCCC(=O)Nc1cc(C(=O)OC)cc(C(=O)OC)c1 | > 501 µM | 249 µM
14 | Cc1ccc(CCNC(=O)CSCCN2CCCC2)o1 | > 501 µM | 306 µM
15 | Cc1cccc(OCC(O)CNc2ncccc2F)c1 (configuration not stated) | 11.6 µM | 19.7 µM
16 | CC(C)c1ccoc1C(=O)N(C)c1cc(C#N)ccn1 | > 501 µM | 140 µM
17 | Cc1csc(CCN)n1 | > 501 µM | > 501 µM
18 | CCN1CCCC1CNC(=O)c1cccc(C)n1 (configuration not stated) | > 501 µM | > 501 µM
19 | CCNC(=O)c1cc(N2CCC(COC)CC2)ccn1 | > 501 µM | 125 µM
20 | COC(=O)c1ccc(-c2noc(CN(CCO)Cc3cccs3)n2)cc1 | > 50.1 µM | 47.5 µM
21 | CN(C)CCN1C(=O)CCC12CCCN(C(=O)c1cccnc1)CC2 (configuration not stated) | > 50.1 µM | –
22 | CCc1nc2c(NCC3COc4c(cccc4OC)C3)ncnc2o1 (configuration not stated) | > 50.1 µM | –

Row | SMILES | IC50 [1] | IC50 [2]
23 | Cc1ccc(CNCC2Cn3nnc(-c4cccc(F)c4)c3CO2)o1 (configuration not stated) | – | 8.85 µM
24 | N#Cc1csc(CNCCOc2ccccc2)c1 | > 50.1 µM | –
25 | Cc1cccc(N2CCC3(CCCC(=O)N3)CC2)n1 | > 50.1 µM | –
26 | Cc1nc(CNC(=O)Nc2ccc3c(c2)CCCC(=O)N3)sc1C | – | > 50.1 µM
27 | CC(Cn1cccn1)NS(=O)(=O)Cc1ccccc1 (configuration not stated) | – | > 50.1 µM
28 | Cc1cc2c(cc1Cl)C=CC1(CCN(CC(=O)N3CCCC3)CC1)O2 | – | > 50.1 µM
29 | Cn1ccc(CN2CCOCC23CCNCC3)n1 | > 50.1 µM | –
30 | CCCc1nc(CN(CCO)Cc2cc(Br)ccc2F)no1 | – | 18.9 µM
31 | Cc1cc(N2Cc3cnn(CCO)c3C2)nc(-c2ccccc2O)n1 | – | > 50.1 µM
32 | CN1CCCC1c1cc2cccnc2n1Cc1ccc(F)cc1 (configuration not stated) | > 50.1 µM | –
33 | CN1CCN(C(=O)c2cc3sccc3n2Cc2ccc(Cl)cc2)CC1 | > 50.1 µM | –
34 | Cc1cc(F)ccc1CN1CCCC(O)(CN2CCCC2)C1 (configuration not stated) | – | > 50.1 µM
35 | CC(C)CCC(=O)NCC(=O)N1CCCCCC1c1ccco1 (configuration not stated) | 6.55 µM | –
36 | NCCn1nc(C2CCN(C(=O)Cc3ccccc3)C2)c2nccnc21 (configuration not stated) | > 50.1 µM | –
37 | CCc1nnc(CN(C)CC2CCCCC2)o1 | – | > 50.1 µM
38 | Cc1ccc(NC(=O)c2ncc(C(N)=O)cc2Cl)cc1F | – | > 50.1 µM
39 | Cc1cccnc1CN(C)C(C(=O)O)c1ccc(-c2ccn[nH]2)cc1 (configuration not stated) | – | > 50.1 µM
40 | O=C1N(Cc2ccc(F)c(F)c2)CCCC12CCN(C1CCCC1)C2 (configuration not stated) | – | > 50.1 µM
41 | CC(C)CN1Cc2nc(N3CCCC3)ncc2C1=O | > 50.1 µM | –
42 | CN(CCCOc1ccccc1)C(=O)c1csc(-c2nnc[nH]2)n1 | > 50.1 µM | –
43 | CN(C)c1ccc(CNC(=O)c2ccc(Cl)cc2F)cc1 | > 50.1 µM | –
44 | COCCN(Cc1ccccc1)Cc1nc(-c2ccsc2)no1 | – | 20.5 µM

Row | SMILES | IC50 [1] | IC50 [2]
45 | Cc1cnn(-c2cccc(N3CCN(c4cc(C)nc(C)n4)CC3)n2)c1 | > 50.1 µM | –
46 | CCNC(=O)CCCC(=O)N1CCc2cc(Cl)cc(Cl)c2C1 | – | > 50.1 µM
47 | CC(=O)N1CCC(N2CCOC[C@H]2c2nc(-c3ccc(Cl)s3)c[nH]2)CC1 | > 50.1 µM | –
48 | CCCC1c2cccn2CCN1C(=O)Cn1cnc2sc(C)cc2c1=O (configuration not stated) | > 50.1 µM | –
49 | Cc1cc(NCCN)nc(-c2ccccc2O)n1 | – | > 50.1 µM
50 | Cc1noc(C)c1-c1cccc(C2CN(CC(=O)N(C)C)CCO2)n1 (configuration not stated) | > 50.1 µM | –
51 | Cc1nc(-c2cc(F)c3c(c2)CC(CN)O3)c[nH]1 (configuration not stated) | – | 2.55 µM
52 | COc1cnc(C2(O)CCN(C(=O)c3cccnc3)CC2)c(OC)n1 | – | > 50.1 µM
53 | COc1cccc(-c2cnc(CNC(C)(C)c3nc(C)cs3)o2)c1 | > 50.1 µM | –
54 | Cc1nnc(CN(Cc2ccccc2Br)C2CC2)o1 | – | 20.1 µM
55 | O=C(c1nn(-c2ccccc2F)cc1O)N1CCC2(CC1)OCCO2 | > 50.1 µM | –
56 | COc1ccc(C[C@H]2CN(C(=O)CN(C)C)CC[C@H]2OC)cc1 | > 50.1 µM | –
57 | CCSc1ncc(CN2CCN(c3ncc(C)c(N)n3)CC2)cn1 | 20.4 µM | –
58 | O=C(CCC(F)(F)F)NCC1CCCS1 (configuration not stated) | – | 8.35 µM
59 | COc1cc(C(=O)NCCc2ccccc2OC)on1 | – | > 50.1 µM
60 | COc1coc(CN2CCCC(CCc3c(F)cccc3F)C2)cc1=O (configuration not stated) | 9.45 µM | –
61 | CNS(=O)(=O)c1cccc(C(C)NCc2ccc(C)c(C)c2)c1 (configuration not stated) | > 50.1 µM | –
62 | CCc1c(C)nc(-n2nc(-c3cccs3)cc2N)[nH]c1=O | – | 44 µM
63 | CCCn1cc(Cl)c(C(=O)N2C[C@@H](O)[C@H](Oc3ccccc3)C2)n1 | – | > 50.1 µM
64 | CO[C@H]1C[C@@H]2CN(C(=O)c3ccc(C)s3)C[C@@H]2C1 | 22.3 µM | –
65 | Cc1cccc2cc(CO)c(N3Cc4cnc(C(C)(C)C)nc4C3)nc12 | – | > 50.1 µM
66 | COc1cccc(CN2CCCC2c2c(C)nn(C)c2C)c1 (configuration not stated) | – | 46.9 µM

Row | SMILES | IC50 [1] | IC50 [2]
67 | c1ccc(-c2nc3c(c(NCCc4c[nH]cn4)n2)CCNC3)cc1 | – | 10.9 µM
68 | Cc1cccc(NCc2ncc(C(C)(C)C)o2)c1 | 12 µM | –
69 | O=c1oc(-c2ccc(F)cc2)nn1CC1CCOC1 (configuration not stated) | – | 34.3 µM
70 | CN1[C@H](CN2CCCC2)C[C@@H]2CN(C(=O)c3cccn3C)CC[C@@H]21 | > 50.1 µM | –
71 | CCOCc1nnc(NCc2ccsc2)o1 | 24.8 µM | –
72 | Cc1nn(C)c2c(N3CCN(C)CC3)nc(C3CC3)nc12 | – | 47.6 µM
73 | CO[C@H]1C[C@@H]2CN(C(=O)Cc3ccc(C)s3)C[C@@H]2C1 | > 50.1 µM | –
74 | Cc1cc(CC(=O)NCCCc2ccncc2)on1 | – | > 501 µM
75 | NC1CCS(=O)(=O)c2ccc(Br)cc21 (configuration not stated) | 89.1 µM | –
76 | Cc1nc(CN2CCC(NS(C)(=O)=O)CC2)co1 | – | > 50.1 µM
77 | O=C1N(Cc2ccc(F)cc2)CCCC12CCN(C1CCSCC1)C2 (configuration not stated) | – | > 50.1 µM
78 | Cc1cccc(-c2noc([C@@H]3Cc4nc[nH]c4CN3)n2)c1 | – | 1.94 µM
79 | Cc1noc(C[C@@H]2COC[C@H]3CN(C(=O)C4=CCCC4)C[C@@H]23)n1 | – | > 50.1 µM
80 | Cc1ccccc1NC1CCN(C(=O)CCc2ccco2)CC1 | – | > 50.1 µM
81 | Cc1csc(N2CCCN(CCC(=O)NC(N)=O)CC2)n1 | – | 39.4 µM
82 | COc1ccc(S(=O)(=O)N2CCC(Cn3ccnc3)CC2)cc1 | > 50.1 µM | –
83 | CCN(C(=O)CCCOC)C(c1ccc(Cl)cc1)c1ccccn1 (configuration not stated) | > 50.1 µM | –
84 | CC(C1CC1)N(C)Cc1nnc(-c2ccco2)o1 (configuration not stated) | > 50.1 µM | –
85 | Fc1ccccc1CN1CCCC2(CCN(c3ncccn3)C2)C1 (configuration not stated) | – | 30.4 µM
86 | N#CCCCn1nnnc1Cc1ccc(Br)cc1 | – | > 50.1 µM
87 | O=C1N(c2ccccc2)C[C@H]2CN(C3CCC3)CCN12 | – | 7.22 µM
